Results as given in US20110293746A1, “Modulation of Gsk-3Beta and Method of Treating Proliferative Disorders” (Agency For Science, Technology and Research, priority 2004, published 2011).
“Also recorded” adds a separate entry of the source.

Key:
HCT116 cells = assay: FACS analysis of DNA content (sub-G1 apoptotic fraction); assay type: cell-based, Human; details: for effect on ADR-treated cells (apoptosis): concentrations up to 20 μM, with ADR
Method: Cell culture and drug treatments: Human colon cancer cell line HCT116 and its derived isogenic p53^−/−, Puma^−/−, Bax^−/− and p53-inducible DLD cell lines were kindly provided by Dr. Bert Vogelstein (Johns Hopkins University, MD). RKO and RKO/E6 cells were from ATCC. Cells were cultured in DMEM containing 10% FBS. All culture reagents and media were from Invitrogen. 5-Fluorouracil, Adriamycin, etoposide and lithium chloride were purchased from Sigma. GSK-3β specific small molecule inhibitor LY2119301 was a gift from Eli Lilly (Indianapolis) and SB-216763, SB-415283 were obtained from BIOMOL.
FACS analysis of DNA content and caspase-3 activity: Cells were harvested and fixed in 70% ethanol. Fixed cells were stained with propidium iodide (50 μg/ml) after treatment with RNase (100 μg/ml). The stained cells were analyzed for DNA content by fluorescence-activated cell sorting (FACS) in a FACScalibur™ (Becton Dickinson Instrument, San Jose, Calif.). Cell cycle fractions were quantified using the CellQues™ software (Becton Dickinson). To measure caspase-3 activity, cells were fixed with Cytofix/Cytoperm™ solution (BD PharMingen) as instructed, and then stained with FITC-conjugated rabbit anti-active caspase-3 monoclonal antibody (BD PharMingen). Quantification of cells positive for the caspase-3 detection was performed by flow cytometry.

p53 in HCT116 cells = assay: p53 accumulation in cytosol and mitochondria (subcellular fractionation, Western blot); assay type: cell-based, Human; details: after drug treatment
Method: (§1) Western blotting, immunoprecipitation and microarray analysis: Cells were scraped, collected and lysed as described previously (Yu, Q., et al. Cancer Res, 62: 5743-5748, 2002). Briefly, cells were lysed with cell lysis buffer (0.3% NP40, 1 mM EDTA, 50 mM Tris-HCl (pH 7.4), 2 mM EGTA, 1% Triton X-100, […], 25 mM NaF, 1 mM Na3VO4, 2 mM AEBSF, 5 μg/ml aprotinin, 1 μg/ml leupeptin) for 30 minutes on ice, and the lysates were clarified by centrifugation at 12,000×g for 15 minutes at 4° C. Protein concentration was quantified (Bio-Rad, Hercules, Calif.) and protein samples (50 μg) were separated by SDS/PAGE and transferred onto Immobilon™ membranes (Millipore, Bedford, Mass.). Antibodies against the following proteins were used: p53 (DO-1), p21, PARP, GSK-α/β, α-Tubulin, and β-actin (Santa Cruz Biotechnology), Puma (Ab-1, Oncogene), Bax (Sigma), phosphor-(Ser9/21)-GSK-3α/β and Caspase-9 (Cell Signaling Technologies), phosphor-(Tyr216/279)-GSK-3α/β (Upstate Biotechnologies), cytochrome c (BD PharMingen). To detect Bax conformational change, cells were lysed in 1% Chaps buffer and the soluble fraction was immunoprecipitated with anti-Bax monoclonal antibody (6A7, BD, PharMingen), followed by immunoblotting with anti-Bax polyclonal antibody. Microarray analysis was performed as described (Kho, P. S., et al. J Biol Chem, 279: 21183-21192, 2004).
(§2) Subcellular fractionation: Cells were lysed in mitochondria lysis buffer (210 mM Mannitol, 70 mM Sucrose, 10 mM Hepes (pH, 7.4), 1 mM EDTA, protease inhibitor cocktail) with a Dounce homogenizer and subjected to centrifugation at 1000×g to pellet the nuclei. Post-nuclear supernatant was centrifuged at 10,000×g to pellet the mitochondria-enriched heavy membrane fraction, and the resulting supernatant was further centrifuged to obtain cytosolic fraction. Total proteins (30 μg) from cytosolic or mitochondrial fractions were subjected to immunoblot analysis.

GSK-3β = target: T1, GSK-3β (Homo sapiens, UniProt P49841); assay: Immunoblot analysis of GSK-3 phosphorylation status in HCT116 cells; assay type: cell-based
T1 construct: endogenous in cells; host or cells: HCT116
Method: (§3) Protein concentration was quantified (Bio-Rad, Hercules, Calif.) and protein samples (50 μg) were separated by SDS/PAGE and transferred onto Immobilon™ membranes (Millipore, Bedford, Mass.). […] To detect Bax conformational change, cells were lysed in 1% Chaps buffer and the soluble fraction was immunoprecipitated with anti-Bax monoclonal antibody (6A7, BD, PharMingen), followed by immunoblotting with anti-Bax polyclonal antibody.
as §2

[1] = tested on: p53 and p53 targets in HCT116 cells; assay: Immunoblot analyses of p53 and p53 targets; assay type: cell-based, Human; details: for cleavage of PARP: cells treated with genotoxic agents; for p53-mediated p21 induction / p53 accumulation / stability in response to DNA damage: with ADR, etoposide or 5-FU, HCT116 (LY2119301 also RKO)
Method: as §1

GSK-3α = target: T2, GSK-3α (Homo sapiens, UniProt P49840); assay: Immunoblot analysis of GSK-3 phosphorylation status in HCT116 cells; assay type: cell-based; details: HCT116 whole lysate immunoblot
T2 construct: endogenous in cells; host or cells: HCT116
Method: as §3, §2

GSK-3α and GSK-3β = details: in vitro, Coghlan et al. 2000; cited from earlier work

T1 sequence (P49841 whole entry): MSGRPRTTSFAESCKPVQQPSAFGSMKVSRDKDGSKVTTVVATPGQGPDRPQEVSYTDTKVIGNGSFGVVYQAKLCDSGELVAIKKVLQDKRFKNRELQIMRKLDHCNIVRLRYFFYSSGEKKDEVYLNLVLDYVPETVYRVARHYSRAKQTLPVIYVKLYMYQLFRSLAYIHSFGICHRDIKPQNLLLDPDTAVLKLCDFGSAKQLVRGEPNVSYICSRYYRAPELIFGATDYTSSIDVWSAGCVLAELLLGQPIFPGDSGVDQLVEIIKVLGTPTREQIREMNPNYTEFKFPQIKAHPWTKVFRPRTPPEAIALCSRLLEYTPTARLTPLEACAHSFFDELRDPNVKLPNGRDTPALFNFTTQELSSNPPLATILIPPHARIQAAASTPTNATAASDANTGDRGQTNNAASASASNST
T2 sequence (P49840 whole entry): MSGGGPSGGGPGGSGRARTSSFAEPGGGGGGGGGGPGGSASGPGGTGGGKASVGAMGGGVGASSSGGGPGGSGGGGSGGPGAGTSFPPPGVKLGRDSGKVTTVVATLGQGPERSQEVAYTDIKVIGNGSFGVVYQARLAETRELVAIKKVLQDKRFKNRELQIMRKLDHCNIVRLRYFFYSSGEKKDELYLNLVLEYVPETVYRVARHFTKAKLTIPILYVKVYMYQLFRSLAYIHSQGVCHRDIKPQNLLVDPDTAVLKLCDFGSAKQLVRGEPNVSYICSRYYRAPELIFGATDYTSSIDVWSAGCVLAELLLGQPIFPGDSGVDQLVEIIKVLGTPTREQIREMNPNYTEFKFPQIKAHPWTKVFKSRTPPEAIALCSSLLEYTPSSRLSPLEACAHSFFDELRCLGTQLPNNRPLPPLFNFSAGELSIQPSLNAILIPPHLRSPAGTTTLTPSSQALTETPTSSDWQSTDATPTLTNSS

Row | Structure (SMILES) | apoptosis by etoposide alone despite mitochondrial p53 accumulation (HCT116 cells; etoposide without GSK-3β inhibitor) | time of p53 accumulation in the cytosol (not seen until) (p53 in HCT116 cells) [h] | time of p53 accumulation in the mitochondria (as early as) (p53 in HCT116 cells) [h] | levels and phosphorylation states of cytosolic and nuclear GSK-3α and GSK-3β (GSK-3β; after etoposide treatment alone) | effect on ADR-treated cells (apoptosis) (HCT116 cells) | cleavage of PARP [1] | p53-mediated p21 induction [1] | p53 accumulation / stability in response to DNA damage [1] | p53-mediated p21 induction ([1]; listed as SB-126763) | p53 accumulation / stability in response to DNA damage ([1]; listed as SB-126763) | inhibitory serine 9 phosphorylation on GSK-3β (GSK-3β; HCT116 whole lysate immunoblot) | tyrosine phosphorylation of GSK-3β (GSK-3β; nuclear and cytoplasmic fractions) | activating tyrosine phosphorylation on GSK-3α (GSK-3α) | inhibitory serine 21 phosphorylation on GSK-3α (GSK-3α) | inhibition of GSK-3α versus GSK-3β (GSK-3α and GSK-3β)
1 | COc1cc([C@@H]2c3cc4c(cc3[C@@H](O[C@@H]3O[C@@H]5CO[C@@H](C)O[C@H]5[C@H](O)[C@H]3O)[C@H]3COC(=O)[C@H]23)OCO4)cc(OC)c1O [etoposide] | failed to induce apoptosis | 6 | 2 | no changes |  |  |  |  |  |  |  |  |  |  | 
2 | O=C1NC(=O)C(c2ccccc2[N+](=O)[O-])=C1Nc1ccc(O)c(Cl)c1 [SB-415286] |  |  |  |  | no effect | did not induce | no affect; also recorded: no effect | no affect; also recorded: no effect |  |  |  |  |  |  | 
3 | Cn1cc(C2=C(c3ccc(Cl)cc3Cl)C(=O)NC2=O)c2ccccc21 [SB-216763] |  |  |  |  | no effect | did not induce | no affect | no affect | no effect | no effect | slightly reduced | did not block | reduced | induced | equally effective
4 | O=c1[nH]cc(F)c(=O)[nH]1 [5-FU, 5-fluorouracil] |  | 6 | 2 |  |  |  |  |  |  |  |  |  |  |  | 
